Values quoted from earlier work, collected in US20140295417A1, “IDENTIFICATION OF ANTIBIOTIC RESISTANCE” (priority 2011, published 2014).
Where two headings read alike, the source gives them in different places.

Tested on: 23S rRNA
Conditions: cited from earlier work
[1] = 23S rRNA position 2611, "C to G", Chlamydomonas reinhardtii (Harris et al. 1989)
[2] = 23S rRNA position 2611, "C to U", Chlamydomonas reinhardtii (Harris et al. 1989)

C[C@H]1O[C@H](O[C@H]2CC[C@H](n3ccc(NC(=O)c4ccc(NC(=O)[C@@](C)(N)CO)cc4)nc3=O)O[C@@H]2C)[C@H](O)[C@@H](O)[C@@H]1N(C)C [Amicetin]
Phenotype (23S rRNA position 2438 "U to A", Halobacterium halobium): Amicetin resistance
Phenotype (23S rRNA position 2438 "U to C", Halobacterium halobium): Amicetin resistance.

COc1ccc(C[C@H]2NC[C@H](O)[C@H]2OC(C)=O)cc1 [Animosycin]
Phenotype (23S rRNA position 2452 "C to U", Halobacterium (Hummel and Böck 1987)): Animosycin resistance.
Phenotype (23S rRNA position 2452 "C to U", Tetrahymena thermophilia): Animosycin resistance

COc1ccc(C[C@H]2NC[C@H](O)[C@H]2OC(C)=O)cc1 [Anisomycin]
Phenotype (23S rRNA position 2447 "G to C", Halobacterium halobium): resistance.
Phenotype (23S rRNA position 2453 "A to C", Halobacterium halobium): Anisomycin resistance

O=C(N[C@H](CO)[C@H](O)c1ccc([N+](=O)[O-])cc1)C(Cl)Cl [Chloramphenicol]
Phenotype (23S position 2061 G to A, Rat mitochondria, Vester and Garrett 1988): resistance
Phenotype (23S position 2062 A to C, Halobacterium halobium, Mankin and Garrett 1991): resistance.
Phenotype (23S rRNA position 2447 "G to A", Yeast mitochondria): resistance.
Phenotype (23S rRNA position 2451 "A to U", Mouse mitochondria): resistance.
Phenotype (23S rRNA position 2452 "C to A", Human mitochondria): resistance.
Phenotype (23S rRNA position 2452 "C to U", Halobacterium halobium (Mankin and Garrett 1991)): resistance.
Phenotype (23S rRNA position 2452 "C to U", Mouse mitochondria): resistance
Phenotype (23S rRNA position 2503 "A to C", Yeast mitochondria): resistance
Phenotype (23S rRNA position 2504 "U to C", Human mitochondria): resistance
Phenotype (23S rRNA position 2504 "U to C", Mouse mitochondria): resistance

CC[C@H]1OC(=O)[C@H](C)[C@@H](O[C@H]2C[C@@](C)(OC)[C@@H](O)[C@H](C)O2)[C@H](C)[C@@H](O[C@@H]2O[C@H](C)C[C@H](N(C)C)[C@H]2O)[C@](C)(OC)C[C@@H](C)C(=O)[C@H](C)[C@@H](O)[C@]1(C)O [Clarithomycin]
Phenotype (23S position 2059 A to G, Helecobacter pylori, Versalovic 1996): resistance.

CC[C@H]1OC(=O)[C@H](C)[C@@H](O[C@H]2C[C@@](C)(OC)[C@@H](O)[C@H](C)O2)[C@H](C)[C@@H](O[C@@H]2O[C@H](C)C[C@H](N(C)C)[C@H]2O)[C@](C)(OC)C[C@@H](C)C(=O)[C@H](C)[C@@H](O)[C@]1(C)O [Clarithromycin]
Phenotype (23S position 2058 A to G, Helecobacter pylori, Versalovic 1996): resistance

CC[C@H]1OC(=O)[C@H](C)[C@@H](O[C@H]2C[C@@](C)(OC)[C@@H](O)[C@H](C)O2)[C@H](C)[C@@H](O[C@@H]2O[C@H](C)C[C@H](N(C)C)[C@H]2O)[C@](C)(O)C[C@@H](C)C(=O)[C@H](C)[C@@H](O)[C@]1(C)O [Ery]
Phenotype (23S position 2058 A to U, double mutation (A2058U/G2032A), E. coli, Douthwaite 1992): hs
Phenotype (23S rRNA 2032 G to A, double mutation (G2032A/A2058U), E. coli): hs
Phenotype (23S rRNA 2057 G to A, double mutation (G2057A/C2661U), E. coli): Slightly Eryr;
Phenotype [1]: Eryr
Phenotype (23S rRNA position 2611, "C to U", double mutation (C2611U/G2057A), E. coli (Vester et al. 1995)): Slightly Eryr; reduced
Phenotype [2]: Eryr

CC[C@H]1OC(=O)[C@H](C)[C@@H](O[C@H]2C[C@@](C)(OC)[C@@H](O)[C@H](C)O2)[C@H](C)[C@@H](O[C@@H]2O[C@H](C)C[C@H](N(C)C)[C@H]2O)[C@](C)(O)C[C@@H](C)C(=O)[C@H](C)[C@@H](O)[C@]1(C)O [Erythromycin]
Phenotype (23S position 2058 A to G, Yeast mitochondria, Sor and Fukuhara 1982): resistance.
Phenotype (23S rRNA 1207 C to U, double mutant (C1207U/C1243U), E. coli): Erythromycin resistant. a Double
Phenotype (23S rRNA 1208 C to U, double mutant (C1208U/C1243U), E. coli): Erythromycin resistant. a Double
Phenotype (23S rRNA 1211 C to U, double mutant (C1211U/C1208U), E. coli): Erythromycin sensitive. a Double
Phenotype (23S rRNA 1220 G to A, double mutant (G1220A/G1239A), E. coli): Erythromycin resistant. a Double
Phenotype (23S rRNA 1221 C to U, double mutant (C1221U/C1229U), E. coli): Erythromycin resistant. a Double
Phenotype (23S rRNA 1221 C to U, double mutant (C1221U/C1233U), E. coli): Erythromycin resistant. a Double
Phenotype (23S rRNA 1230, double deletion (1230/1231), E. coli): Erythromycin sensitive. a Double
Phenotype (23S rRNA 1231, double deletion (1231/1230), E. coli): Erythromycin sensitive. a Double
Phenotype (23S rRNA 1232 G to A, double mutant (G1232A/G1238A), E. coli): Erythromycin sensitive. a Double
Phenotype (23S rRNA 1233 C to U, E. coli): Erythromycin sensitive. a
Phenotype (23S rRNA 1234 U to C, E. coli): Erythromycin sensitive. a
Phenotype (23S rRNA 1234 del1234/del1235, double mutant (U1234C/del1235), E. coli): Erythromycin sensitive. a Double
Phenotype (23S rRNA 1243 C to U, double mutant (C1243U/C1207), E. coli): Erythromycin resistant. a Double
Phenotype (23S rRNA 1243 C to U, double mutant (C1243U/C1208U), E. coli): Erythromycin resistant. a Double
Phenotype (23S rRNA 1243 C to U, double mutant (C1243U/C1221U), E. coli): Erythromycin resistant. a Double

CCC[C@@H]1C[C@@H](C(=O)N[C@@H]([C@H]2O[C@H](SC)[C@H](O)[C@@H](O)[C@H]2O)[C@@H](C)O)N(C)C1 [Lincomycin]
Phenotype (23S position 2058 A to G, Chlamydomonas reinhardtii, Harris 1989): resistance.
Phenotype (23S position 2058 A to G, Solanum nigrum, Kavanagh 1994): resistance.
Phenotype (23S position 2058 A to G, Tobacco chloroplasts, Cseplö 1988): resistance.
Phenotype (23S position 2059 A to G, Tobacco chloroplasts, Cseplö 1988): resistance.
Phenotype (23S rRNA 2032 G to A, Tobbaco chloroplasts): resistance.

CSC[S@+]([O-])C[C@H](CO)NC(=O)/C=C/c1c(C)[nH]c(=O)[nH]c1=O [Sparsomycin]
Phenotype (23S rRNA position 2499 "C to U", Halobacterium halobium): resistance

CC[C@H]1OC(=O)[C@H](C)[C@@H](O[C@H]2C[C@@](C)(OC)[C@@H](O)[C@H](C)O2)[C@H](C)[C@@H](O[C@@H]2O[C@H](C)C[C@H](N(C)C)[C@H]2O)[C@](C)(O)C[C@@H](C)C(=O)[C@H](C)[C@@H](O)[C@]1(C)O [erythromycin]
Phenotype: growth rate (23S rRNA 1056 G to A, E. coli, with 2058G and erythromycin): erythromycin) Reduced
Phenotype: growth rate (23S rRNA 1064 C to U, E. coli, with 2058G and erythromycin): erythromycin) Reduced
Phenotype (23S rRNA 1068 G to A, E. coli, with 2058G, expressed from rrnB or pL promotor in presence of erythromycin): 2058G) Lethal when
Phenotype (23S rRNA 1137 G to A, double mutant (G1137A/G1138C), E. coli, with 2058G and erythromycin, rrnB promoter): lethal when expressed from rrnB
Phenotype (23S rRNA 1137 G to A, E. coli, with 2058G and erythromycin, expressed from rrnB promoter): lethal when expressed from rrnB
Phenotype (23S rRNA 1138 G to C, double mutant (G1138C/G1137A), E. coli, with 2058G and erythromycin, rrnB promoter): lethal when expressed from rrnB
Phenotype (23S rRNA 1138 G to C, E. coli, with 2058G and erythromycin, rrnB promoter): lethal when expressed from rrnB
Phenotype: growth rate (23S rRNA 1262 A to C, double mutant (A1262C/U2017G), E. coli, with erythromycin): With erythromycin; reduced
Phenotype (23S rRNA 1262 A to C, E. coli, with erythromycin): With erythromycin; lethal
Phenotype (23S rRNA 1262 A to G, E. coli, with erythromycin): With erythromycin; lethal
Phenotype: growth rate (23S rRNA 1262 A to U, double mutant (A1262U/U2017G), E. coli, with erythromycin): With erythromycin; reduced
Phenotype: growth rate (23S rRNA 1262 A to U, E. coli, with erythromycin): With erythromycin; reduced
Phenotype: growth rate (23S rRNA 2017 U to A, E. coli): Reduced growth
Phenotype: growth rate (23S rRNA 2017 U to C, double mutation (U2017C/A1262G), E. coli): Reduced growth
Phenotype: growth rate (23S rRNA 2017 U to C, E. coli): Reduced growth
Phenotype: growth rate (23S rRNA 2017 U to G, double mutation (U2017G/A1262C), E. coli): Reduced growth
Phenotype: growth rate (23S rRNA 2017 U to G, double mutation (U2017G/A1262U), E. coli): Reduced growth

CC[C@H]1OC(=O)[C@H](C)[C@@H](O[C@H]2C[C@@](C)(OC)[C@@H](O)[C@H](C)O2)[C@H](C)[C@@H](O[C@@H]2O[C@H](C)C[C@H](N(C)C)[C@H]2O)[C@](C)(O)C[C@@H](C)C(=O)[C@H](C)[C@@H](O)[C@]1(C)O [eyrthomycin]
Phenotype: growth rate (23S rRNA 2017 U to G, E. coli): Reduced growth

CCC[C@@H]1C[C@@H](C(=O)N[C@@H]([C@H]2O[C@H](SC)[C@H](O)[C@@H](O)[C@H]2O)[C@@H](C)O)N(C)C1 [lincomycin]
Phenotype [1]: low level
Phenotype [2]: low level
